# Earlier results, collected in patent US20190298660A1, “PHOSPHATE-CROSSLINKED STARCH NANOPARTICLES AND USE FOR DRUG DELIVERY” (GreenMark Biomedical Inc., priority 2018, published 2019).
smiles,measurement,value
COc1cccc2c1C(=O)c1c(O)c3c(c(O)c1C2=O)C[C@@](O)(C(=O)CO)C[C@@H]3O[C@H]1C[C@H](N)[C@H](O)[C@H](C)O1 [doxorubicin],pKa,9.53
